Earlier results in patent US20040131702A1, “Use of selenite or preparation containing selenite for treating wounds” (priority 2001, published 2004).
Where “and” joins values, the source holds several entries; their conditions need not be identical. Equal values may be shown once.

Assays:
human body = details: in vivo
animals = details: in vivo
[1] = acid environment

Compound	Selenium content of the daily food above which the human body will fall ill (human body)	Selenium content of food above which animals exhibit symptoms of poisoning (animals)	Standard redox potential E0 [1]
[Se] [selenium]	more than 1 μg of selenium/g	5 to 10 μg of selenium/g	
O=[Se](O)O [selenite]			−0.740 Volt and −0.740 (acid environment) Volt
